In patent US20130165368A1, “ANTIMICROBIAL COMPOUNDS” (priority 2010, published 2013):
Converted amounts (≈) assume the structure as drawn. Like-named read-outs stand apart in the source and are kept apart here. Blank lines part the entries; values can stand above or below the compound they belong to.

What was measured:
Format in all cases: cell-based
Pseudomonas aeruginosa = assay: MIC agar dilution, micro-organism 7 (10662); details: Pseudomonas aeruginosa 10662
Experimental: (§1) Throughout the period of testing the microbial strains were subcultured and incubated for 18-20 hours at 37° C. on a weekly basis. Horse blood agar plates were used to sustain the micro-organisms both prior to and throughout testing. The alkoxylated alkanols listed in Table II below were obtained (these are obtainable from Sigma-Aldrich Company Ltd, Dorset, England), each having a GC purity of at least 97%.
(§2) Molar equivalent concentrations were used to allow comparison between compounds of differing molecular mass. Due to weighing difficulties, any compound in solid form was melted in a water bath prior to dilution. To make ten-times strength concentrations, which takes into account agar dilution, 0.0352 mmol of each compound was weighed into plastic universal bottles and 4 mL of sterile distilled water (SDW) was added. To produce a homogenous emulsion the universals were vortexed; once achieved the emulsions were serial diluted by adding 2 mL to 2 mL of SDW.
(§3) Myristyl alcohol and lauryl alcohol were re-weighed and dissolved in 25 μL of the polar solvent 1-methyl-2-pyrrolidone (M6762; Sigma-Aldrich) in sterile glass universals due to an inability to achieve an even suspension. To maintain an even emulsion in the presence of SDW 37.5 μL of the non-ionic detergent Tween 20 (P1379, Sigma-Aldrich) was also added. 3.9375 mL of SDW was added to these, to create a 4 mL volume; they were vortexed and diluted as before.
(§4) For every 100 mL of Isosensitest agar (IST) (CM0471; Oxoid, Basingstoke, England), 3.1 g of the IST powder was added to 100 mL SDW (as per manufacturer's instructions) and sterilised for 15 minutes at 121° C. Once sterilised, the molten agar was cooled to 50° C. in a water-bath. Subsequently 4.8 g of CCEY powder (BC2160; Bioconnections, Wetherby, England), also known as Brazier's medium, was added to 100 mL SDW for every 100 mL of agar needed. This was then sterilised for 15 minutes at 121° C. Once sterilised the molten agar was cooled to 50° C. in a water-bath and 4 mL of egg-yolk emulsion (S2073; TCS Biosciences Ltd, Buckingham, United Kingdom) and 1 mL of lysed defibrinated horse blood (HB035; TCS Biosciences Ltd, Buckingham, United Kingdom) were also added for every 100 mL needed. Horse blood lysis is achieved by dilution to half concentration with SDW; when fully lysed the mixture will turn dark red in colour.
(§5) 18 mL agar was added to each universal and then poured into sterile Petri dishes. This step creates a 1/10 dilution resulting in agar plates of the required strength. Control plates for each set of strains were created by adding 18 mL of agar to 2 mL of SDW.
(§6) Suspensions of each bacterial species were prepared with a density equal to that of a 0.5 McFarland standard using a densitometer. All suspensions were made using sterile distilled water and fresh 18-20 hour cultures. As a 0.5 McFarland standard contains 1.5×10^8 CFU/mL and the multipoint inoculators applies 1 μL spots of liquid, each bacterial suspension was diluted 1/15 (20 μL suspension to 280 μL sterile distilled water).
(§7) Bacterial suspensions were prepared from fresh 18-24 hour cultures as previously described. 1 μL of each strain was inoculated onto all 100 agar plates containing a different chemical concentration and the 2 control plates. This was done using a multipoint inoculator which inoculates 20 strains per plate. All plates were incubated for 22 hours at 37° C. in aerobic conditions.
(§8) Each plate was examined for bacterial growth after 22 and 48 hours, with each being incubated in between examinations. A positive result was recorded as growth of ≧10 colonies. A negative result was recorded as growth of <10 colonies as this is equivalent to 99.9% inhibition. The lowest concentration of chemical that inhibited growth was recorded as the MIC. The results are recorded in Table IV below, where the numbers are quoted in mmol/L.
(§9) Further experiments have also been conducted to determine the MIC of a number of other compositions as follows. […]

Salmonella typhimurium = assay: MIC agar dilution, micro-organism 6 (74); details: Salmonella typhimurium 74
Experimental: as §1, §2, §3, §4, §5, §6, §7, §8, §9

Burkholderia cepacia = assay: MIC agar dilution, micro-organism 9 (1222); details: Burkholderia cepacia 1222
Experimental: as §1, §2, §3, §4, §5, §6, §7, §8, §9

Enterobacter cloacae = assay: MIC agar dilution, micro-organism 4 (11936); details: Enterobacter cloacae 11936
Experimental: as §1, §2, §3, §4, §5, §6, §7, §8, §9

Klebsiella pneumoniae = assay: MIC agar dilution, micro-organism 2 (9528); details: Klebsiella pneumoniae 9528
Experimental: as §1, §2, §3, §4, §5, §6, §7, §8, §9

Serratia marcescens = assay: MIC agar dilution, micro-organism 5 (10211); details: Serratia marcescens 10211
Experimental: as §1, §2, §3, §4, §5, §6, §7, §8, §9

Staphylococcus aureus = assay: Additional antibacterial data, MIC (Table XII), Gram positive control; details: Staphylococcus aureus 470273M (control); inoculum 10000 cfu/spot; 24 hrs at 37° C.
Experimental: (§10) Using the protocols outlined in the example above, the inventors further investigated the antibacterial effects of representative alkoxylated alkanol compounds. The inoculum was 10000 cfu/spot; inclubation was for 24 hrs at 37° C.

[1] = tested on: Staphylococcus aureus(MRSA); assay: as above; details: Staphylococcus aureus(MRSA) 380022E (control); inoculum 10000 cfu/spot; 24 hrs at 37° C.
Experimental: as §10

[2] = tested on: Stenotrophomonas maltophilia; assay: Additional antibacterial data, MIC (Table XII); details: 24 hrs at 37° C.; for MIC (%) volume/volume: Stenotrophomonas maltophilia 10257, inoculum 10000 cfu/spot
Experimental: as §10

Gram-negative species = assay: Additional antibacterial data, MIC (Table XII); details: 24 hrs at 37° C.; for MIC (%) volume/volume: inoculum 10000 cfu/spot
Experimental: as §10

Propionibacteria = assay: MIC with Propionibacteria (Table X); details: 48 h, 48 hours at 37° C., anaerobic
Experimental: Further experiments have also been conducted to determine the MIC of a number of other compositions as follows. The experimental procedure followed is the same as that initially described at the beginning of this Examples and Data section of the specification, except where indicated below.
The results were obtained following incubation for 48 hours at 37° C. in anaerobic conditions.

MIC (Pseudomonas aeruginosa; 22 hrs, read-out: MIC): > 880 µM
MIC (Pseudomonas aeruginosa; 48 hrs, read-out: MIC): > 880 µM
MIC (Salmonella typhimurium; Salmonella enterica, 22 hrs, read-out: MIC): 880 µM (≈ 213 µg/mL)
MIC (Salmonella typhimurium; Salmonella enterica, 48 hrs, read-out: MIC): 880 µM (≈ 213 µg/mL)
MIC (Burkholderia cepacia; 22 hrs, read-out: MIC): > 880 µM
MIC (Burkholderia cepacia; 48 hrs, read-out: MIC): > 880 µM
MIC (Enterobacter cloacae; 22 hrs, read-out: MIC): > 880 µM
MIC (Enterobacter cloacae; 48 hrs, read-out: MIC): > 880 µM
MIC (Klebsiella pneumoniae; 22 hrs, read-out: MIC): 880 µM (≈ 213 µg/mL)
MIC (Klebsiella pneumoniae; 48 hrs, read-out: MIC): 880 µM (≈ 213 µg/mL)
MIC (Serratia marcescens; 22 hrs, read-out: MIC): > 880 µM
MIC (Serratia marcescens; 48 hrs, read-out: MIC): > 880 µM
Compound: CCCCCCCCCCCCCCCCO [C0, 1-Hexadecanol, reference compound]

Compound: CCCCCCCCCCCCCOCCOCCOCCOCCOCCOCCO [C13E6, polyoxyethylene (6) tridecyl alcohol]
MIC (Pseudomonas aeruginosa; 22 hrs): >880 µM
MIC (Pseudomonas aeruginosa; 48 hrs): >880 µM
MIC (Salmonella typhimurium; 22 hrs): >880 µM
MIC (Salmonella typhimurium; 48 hrs): >880 µM
MIC (Burkholderia cepacia; 22 hrs): >880 µM
MIC (Burkholderia cepacia; 48 hrs): >880 µM
MIC (Enterobacter cloacae; 22 hrs): >880 µM
MIC (Enterobacter cloacae; 48 hrs): >880 µM
MIC (Klebsiella pneumoniae; 22 hrs): >880 µM
MIC (Klebsiella pneumoniae; 48 hrs): >880 µM
MIC (Serratia marcescens; 22 hrs): >880 µM
MIC (Serratia marcescens; 48 hrs): >880 µM

Compound: CCCCCCCCCCCCOCCO [L1, Ethylene Glycol Monododecyl Ether]
MIC (%) volume/volume (Staphylococcus aureus): 0.25 % volume/volume
MIC (%) volume/volume [1]: 0.25 % volume/volume
MIC (%) volume/volume [2]: 0.5 % volume/volume
MIC (%) volume/volume (Gram-negative species; Acinetobacter baumannii 19606): 1 % volume/volume
MIC (%) volume/volume (Gram-negative species; Escherichia coli 10418): 0.25 % volume/volume
MIC (%) volume/volume (Gram-negative species; Klebsiella pneumoniae 9528): 0.5 % volume/volume
activity against selected Gram-negative species (Gram-negative species; at higher concentrations, 10000 cfu/spot): shows activity

Compound: CCCCCCCCCCCCOCCOCCOCCOCCO [L4, Tetraethylene Glycol Monododecyl Ether]
MIC (Propionibacteria; Propionibacterium granulosum 354039G): 440 µM (≈ 160 µg/mL)
MIC (Propionibacteria; Propionibacterium granulosum 354043J): 440 µM (≈ 160 µg/mL)
MIC (Propionibacteria; Propionibacterium granulosum 354044V): 880 µM (≈ 319 µg/mL)
MIC (Propionibacteria; Propionibacterium species 387327Y): 440 µM (≈ 160 µg/mL)
MIC (Propionibacteria; certain of the Propionibacteria tested): < 880 µM
MIC (Propionibacteria; Cutibacterium acnes, Propionibacterium acnes 737): 880 µM (≈ 319 µg/mL)
MIC (Propionibacteria; Cutibacterium avidum, Propionibacterium avidum 340090P): 880 µM (≈ 319 µg/mL)
MIC (Propionibacteria; Cutibacterium avidum, Propionibacterium avidum 340093T): 880 µM (≈ 319 µg/mL)
MIC (Propionibacteria; Cutibacterium avidum, Propionibacterium avidum 340097V): 880 µM (≈ 319 µg/mL)
MIC (Propionibacteria; Cutibacterium avidum, Propionibacterium avidum 354020J): 880 µM (≈ 319 µg/mL)
MIC (Propionibacteria; Cutibacterium avidum, Propionibacterium avidum 354025L): 880 µM (≈ 319 µg/mL)
MIC (%) volume/volume (Staphylococcus aureus): 0.03 % volume/volume
MIC (%) volume/volume [1]: 0.03 % volume/volume
MIC (%) volume/volume [2]: 0.06 % volume/volume
susceptibility of Stenotrophomonas maltophilia ([2]; relatively low concentrations, 10000 cfu/spot): susceptible
MIC (%) volume/volume (Gram-negative species; Acinetobacter baumannii 19606): >4 % volume/volume
MIC (%) volume/volume (Gram-negative species; Escherichia coli 10418): >4 % volume/volume
MIC (%) volume/volume (Gram-negative species; Klebsiella pneumoniae 9528): >4 % volume/volume
